What was measured:
KM12 = assay: NCI60 five-dose screen; assay type: cell-based; conditions: Homo sapiens, KM12, colon cancer
NCI-H522 = assay: NCI60 five-dose screen; assay type: cell-based; conditions: Homo sapiens, NCI-H522, NSC lung cancer
CCRF-CEM = assay: NCI60 five-dose screen; assay type: cell-based; conditions: Homo sapiens, leukemia
UACC-257 = assay: NCI60 five-dose screen; assay type: cell-based; conditions: Homo sapiens, UACC-257, melanoma
SF-268 = assay: NCI60 five-dose screen; assay type: cell-based; conditions: Homo sapiens, SF-268, CNS cancer
OVCAR-5 = assay: NCI60 five-dose screen; assay type: cell-based; conditions: Homo sapiens, OVCAR-5, ovarian cancer
HL-60 (TB) = assay: NCI60 five-dose screen; assay type: cell-based; conditions: Homo sapiens, leukemia
NCI-H322M = assay: NCI60 five-dose screen; assay type: cell-based; conditions: Homo sapiens, NSC lung cancer
UO-31 = assay: NCI60 five-dose screen; assay type: cell-based; conditions: Homo sapiens, UO-31, renal cancer
SK-MEL-28 = assay: NCI60 five-dose screen; assay type: cell-based; conditions: Homo sapiens, SK-MEL-28, melanoma
T-47D = assay: NCI60 five-dose screen; assay type: cell-based; conditions: Homo sapiens, T47D, breast cancer
SF-295 = assay: NCI60 five-dose screen; assay type: cell-based; conditions: Homo sapiens, SF-295, CNS cancer
MDA-MB-231/ATCC = assay: NCI60 five-dose screen; assay type: cell-based; conditions: Homo sapiens, breast cancer
NCI/ADR-RES = assay: NCI60 five-dose screen; assay type: cell-based, human; conditions: Homo sapiens, ovarian cancer
HS 578T = assay: NCI60 five-dose screen; assay type: cell-based; conditions: Homo sapiens, breast cancer
Human CYP19 (aromatase) = target: T1, Human CYP19 (aromatase) (Homo sapiens, UniProt P11511); assay: Aromatase inhibition assay (DBF fluorometric substrate); assay type: biochemical; conditions: active defined as IC50 < 12.5 µM
T1 construct: purchased GENTEST, Woburn, MA 456260; host or cells: baculovirus/insect cells
T1 sequence (P11511 1-503): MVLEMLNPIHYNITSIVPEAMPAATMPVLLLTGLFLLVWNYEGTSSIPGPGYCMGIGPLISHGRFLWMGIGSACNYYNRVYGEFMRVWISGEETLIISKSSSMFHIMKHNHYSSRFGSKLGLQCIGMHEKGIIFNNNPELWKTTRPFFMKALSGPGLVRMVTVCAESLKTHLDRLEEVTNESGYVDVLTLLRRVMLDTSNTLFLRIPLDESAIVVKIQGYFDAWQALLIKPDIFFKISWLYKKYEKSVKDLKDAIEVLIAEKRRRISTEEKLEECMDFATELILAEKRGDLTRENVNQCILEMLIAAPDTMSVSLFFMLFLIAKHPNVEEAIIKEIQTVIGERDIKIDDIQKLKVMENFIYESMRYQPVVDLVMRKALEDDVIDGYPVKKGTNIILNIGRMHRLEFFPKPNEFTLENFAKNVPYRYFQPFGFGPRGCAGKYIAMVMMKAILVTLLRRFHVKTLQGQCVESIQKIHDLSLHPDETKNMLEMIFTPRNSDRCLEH
In short: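 Supersomes expressing human CYP19 plus oxidoreductase (baculovirus/insect cell) with fluorometric substrate DBF; cofactor mixture pre-incubated 10 min at 37 °C, reaction run 30 min at 37 °C, stopped with NaOH. Fluorescence read at ex 490/em 530 nm.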

MOLT-4 = assay: NCI60 five-dose screen; assay type: cell-based; conditions: Homo sapiens, MOLT-4, leukemia
MDA-MB-468 = assay: NCI60 five-dose screen; assay type: cell-based; conditions: Homo sapiens, MDA-MB-468, breast cancer
RPMI-8226 = assay: NCI60 five-dose screen; assay type: cell-based; conditions: Homo sapiens, RPMI-8226, leukemia
MALME-3M = assay: NCI60 five-dose screen; assay type: cell-based; conditions: Homo sapiens, melanoma
HCC-2998 = assay: NCI60 five-dose screen; assay type: cell-based; conditions: Homo sapiens, HCC-2998, colon cancer
SW-620 = assay: NCI60 five-dose screen; assay type: cell-based; conditions: Homo sapiens, SW-620, colon cancer
SK-OV-3 = assay: NCI60 five-dose screen; assay type: cell-based; conditions: Homo sapiens, SK-OV-3, ovarian cancer
SN12C = assay: NCI60 five-dose screen; assay type: cell-based; conditions: Homo sapiens, renal cancer
OVCAR-8 = assay: NCI60 five-dose screen; assay type: cell-based; conditions: Homo sapiens, OVCAR-8, ovarian cancer
SNB-19 = assay: NCI60 five-dose screen; assay type: cell-based; conditions: Homo sapiens, SNB-19, CNS cancer
TK-10 = assay: NCI60 five-dose screen; assay type: cell-based; conditions: Homo sapiens, TK-10, renal cancer
U251 = assay: NCI60 five-dose screen; assay type: cell-based; conditions: Homo sapiens, U-251, U251, CNS cancer
[1] = read-out: LC50 (the source's name)

Cc1cc(C)c(/C=N/NC(=O)c2[nH]c3ccc(Br)cc3c2-c2ccccc2)[nH]1 [Derivative 3c, (E)-5-Bromo-N′-((3,5-dimethyl-1H-pyrrol-2-yl)methylene)-3-phenyl-1H-2-carbohydrazide]
GI50 (KM12): 2.96 µM
CC50 (KM12; [1]): 35.4 µM
GI50 (NCI-H522): 2.61 µM
CC50 (NCI-H522; [1]): 32.7 µM
GI50 (CCRF-CEM): 3.07 µM
CC50 (CCRF-CEM; [1]): > 100 µM
GI50 (UACC-257): 4.35 µM
CC50 (UACC-257; [1]): 49.2 µM
GI50 (SF-268): 2.98 µM
CC50 (SF-268; [1]): 53.2 µM
GI50 (OVCAR-5): 3.63 µM
CC50 (OVCAR-5; [1]): 37.6 µM
GI50 (HL-60 (TB)): 2.4 µM
CC50 (HL-60 (TB); [1]): > 100 µM
GI50 (NCI-H322M): 2.69 µM
CC50 (NCI-H322M; [1]): 38.7 µM
GI50 (UO-31): 1.77 µM
CC50 (UO-31; [1]): 33.8 µM
GI50 (SK-MEL-28): 3.81 µM
CC50 (SK-MEL-28; [1]): 38.8 µM
GI50 (T-47D): 4.68 µM
CC50 (T-47D; [1]): 77.6 µM
GI50 (SF-295): 2.76 µM
CC50 (SF-295; [1]): 29.5 µM
GI50 (MDA-MB-231/ATCC): 2.78 µM
CC50 (MDA-MB-231/ATCC; [1]): 32.8 µM
GI50 (NCI/ADR-RES): 2.11 µM
CC50 (NCI/ADR-RES; [1]): 19.3 µM
GI50 (HS 578T): 2.31 µM
CC50 (HS 578T; [1]): > 100 µM
IC50 (Human CYP19 (aromatase)): 11.1 ± 2 µM
GI50 (MOLT-4): 2.29 µM
CC50 (MOLT-4; [1]): > 100 µM
GI50 (MDA-MB-468): 2 µM
CC50 (MDA-MB-468; [1]): 26.4 µM
GI50 (RPMI-8226): 2.43 µM
CC50 (RPMI-8226; [1]): > 100 µM
GI50 (MALME-3M): 3.16 µM
CC50 (MALME-3M; [1]): 38.5 µM
GI50 (HCC-2998): 3.55 µM
CC50 (HCC-2998; [1]): 37.2 µM
GI50 (SW-620): 3.06 µM
CC50 (SW-620; [1]): 42 µM
GI50 (SK-OV-3): 6.81 µM
CC50 (SK-OV-3; [1]): 70.8 µM
GI50 (SN12C): 2.58 µM
CC50 (SN12C; [1]): 32.3 µM
GI50 (OVCAR-8): 3.1 µM
CC50 (OVCAR-8; [1]): 45 µM
GI50 (SNB-19): 3.86 µM
CC50 (SNB-19; [1]): 39.4 µM
GI50 (TK-10): 7.32 µM
CC50 (TK-10; [1]): 45.2 µM
GI50 (U251): 3.21 µM
CC50 (U251; [1]): 35.7 µM

Source: article PMC12203311, “Design, synthesis, in silico and in vitro evaluation of pyrrole–indole hybrids as dual tubulin and aromatase inhibitors with potent anticancer activities” (RSC Advances, 2025)
